Measurements taken from US9387216B2, “Biomarkers for treatment of neoplastic disorders using androgen-targeted therapies” (Tokai Pharmaceuticals, Inc., priority 2013, dated 2016).
Where two headings read alike, the source gives them in different places.

Assays:
[1] = system: AR nuclear translocation; test: AR nuclear translocation by immunocytochemistry / immunofluorescence; type: cell-based
[2] = cited from earlier work
[3] = system: AR and prostate-specific antigen (PSA) protein expression; test: AR and PSA protein expression (western blot) in LNCaP and Enzalutamide resistant cells; type: cell-based
[4] = system: AR activity; test: AR luciferase assay; type: cell-based
[5] = system: PSA levels; test: PSA response of CRPC patients by AR C-terminal status; type: in vivo, human; settings: for maximal reductions in PSA levels: patients with AR C-terminal loss
Protocol: A group of six patients naive to previous CRPC therapy was analyzed with respect to AR status. Four of the six patients were identified as having AR receptors with a C-terminal loss as determined by the evaluation of C-terminal androgen receptor expression in relation to N-terminal androgen receptor expression. All four of the patients having this AR variant had maximal reductions in PSA levels of at least 50%.

[6] = system: CWR22rv1 cell line; test: Cell proliferation in CWR22rv1 cell line; type: cell-based
[7] = system: LuCaP136 castration resistant xenograft tumors which express AR-V7; test: Xenograft model of CRPC in mice (LuCaP136); type: in vivo
Protocol: Galeterone was tested in a xenograft model of CRPC in mice. […] AR-V7 was detected in LuCaP136 castration resistant xenograft tumors using RT-PCR.

[8] = system: LNCaP cells, CRPC cells, Enzalutamide resistant cell lines 49F and 49C; test: Crystal violet and MTT proliferation/viability assays in LNCaP, CRPC and Enzalutamide resistant (49C, 49F) cells; type: cell-based
[9] = target: T1, CYP17 lyase (Homo sapiens, UniProt P05093); settings: steroidogenic pathway; cited from earlier work
T1 sequence (P05093 1-508): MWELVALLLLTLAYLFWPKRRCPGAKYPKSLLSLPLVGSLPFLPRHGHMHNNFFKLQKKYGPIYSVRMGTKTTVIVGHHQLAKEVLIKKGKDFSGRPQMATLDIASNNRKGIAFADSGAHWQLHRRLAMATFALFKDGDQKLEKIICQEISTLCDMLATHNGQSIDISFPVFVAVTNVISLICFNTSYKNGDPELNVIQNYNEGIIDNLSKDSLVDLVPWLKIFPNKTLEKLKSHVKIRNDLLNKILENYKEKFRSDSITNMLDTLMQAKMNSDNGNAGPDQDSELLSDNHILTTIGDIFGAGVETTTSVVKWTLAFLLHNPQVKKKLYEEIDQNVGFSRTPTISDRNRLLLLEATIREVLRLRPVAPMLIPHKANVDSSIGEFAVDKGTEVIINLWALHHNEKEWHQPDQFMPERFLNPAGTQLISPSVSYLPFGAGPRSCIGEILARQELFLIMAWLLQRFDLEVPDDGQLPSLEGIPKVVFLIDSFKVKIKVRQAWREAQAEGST

[10] = system: AR-dependent gene expression; test: AR-dependent gene expression in cells with wild-type AR and AR point mutations; type: cell-based
From the text: These cells also express AR receptors with F876L mutation.

[11] = target: T2, full-length AR and AR-V7 (Homo sapiens, UniProt P10275, H875Y); type: cell-based
T2 construct: CWR22rv1 cell line which constitutively expresses both AR and AR-V7; endogenous in cells; host or cells: CWR22rv1
T2 sequence (P10275 1-920 H875Y): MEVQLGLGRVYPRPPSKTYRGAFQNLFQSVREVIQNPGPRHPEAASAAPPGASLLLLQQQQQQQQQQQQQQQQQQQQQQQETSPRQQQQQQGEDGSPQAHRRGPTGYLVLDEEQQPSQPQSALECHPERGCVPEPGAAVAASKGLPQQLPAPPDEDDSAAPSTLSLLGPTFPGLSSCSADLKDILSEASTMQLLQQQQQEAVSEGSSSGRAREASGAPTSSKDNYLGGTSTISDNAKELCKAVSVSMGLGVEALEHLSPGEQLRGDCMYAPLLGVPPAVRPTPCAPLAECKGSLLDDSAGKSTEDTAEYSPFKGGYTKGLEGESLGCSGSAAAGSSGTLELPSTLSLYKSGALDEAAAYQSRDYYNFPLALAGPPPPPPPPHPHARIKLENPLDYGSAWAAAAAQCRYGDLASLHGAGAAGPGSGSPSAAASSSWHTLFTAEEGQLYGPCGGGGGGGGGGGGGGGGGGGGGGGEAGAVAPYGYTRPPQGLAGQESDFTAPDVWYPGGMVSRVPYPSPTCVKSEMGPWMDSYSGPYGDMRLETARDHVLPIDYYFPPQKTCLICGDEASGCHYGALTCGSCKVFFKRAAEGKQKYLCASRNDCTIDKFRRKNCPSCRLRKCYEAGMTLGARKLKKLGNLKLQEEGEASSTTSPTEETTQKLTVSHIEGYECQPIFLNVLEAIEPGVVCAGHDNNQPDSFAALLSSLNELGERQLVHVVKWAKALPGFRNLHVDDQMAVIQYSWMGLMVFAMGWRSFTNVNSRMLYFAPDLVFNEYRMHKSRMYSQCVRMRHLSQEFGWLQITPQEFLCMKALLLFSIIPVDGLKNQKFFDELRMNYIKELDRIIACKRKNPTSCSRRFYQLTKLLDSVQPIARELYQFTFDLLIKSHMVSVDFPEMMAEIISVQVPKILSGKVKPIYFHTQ
Protocol: An experiment to detect expression of full-length AR and AR-V7 variant proteins was conducted in a CWR22rv1 cell line which constitutively expresses both AR and AR-V7. […] See also FIG. 4.

[12] = patients expressing AR-V7 mRNA in circulating tumor cells
[13] = enzalutamide-responsive CPRC cell line

**Q.** Which “AR translocation to the nucleus” value [1] does the source give for `C[C@]1(O)CC[C@H]2[C@@H]3CCC4=CC(=O)CCC4=C3C=C[C@@]21C` [Compound R1881, reference compound] here?
**A.** caused robust AR translocation to the nucleus

**Q.** With `CNC(=O)c1ccc(N2C(=S)N(c3ccc(C#N)c(C(F)(F)F)c3)C(=O)C2(C)C)cc1F` [Enzalutamide, reference compound] as the compound, how does the “patients for which PSA levels dropped by 50%” value ([2]; AR-V7 negative patients) read?
**A.** 53%

**Q.** What about the time to progression ([2]; AR-V7 negative patients) of the same compound?
**A.** 6.1 months

**Q.** And the PSA decline [2, 12]?
**A.** no PSA decline

**Q.** What about the time to progression [2, 12] of the same compound?
**A.** 2.1 months

**Q.** What about the “AR and PSA protein expression levels” value ([3]; LNCaP cells) of the same compound?
**A.** reduced AR and PSA protein expression levels

**Q.** What about the “AR activity (luciferase)” value [4, 13] of the same compound?
**A.** reduced AR activity

**Q.** Which results are given for `C[C@]12CC[C@H](O)CC1=CC[C@@H]1[C@@H]2CC[C@]2(C)C(n3cnc4ccccc43)=CC[C@@H]12` [Galeterone, 3-β-Hydroxyl 17-(1H-benzimidazol-1-yl)androsta-5,16-diene]?
**A.** maximal reductions in PSA levels ([5]; 12 weeks at 2550 mg daily): at least 50%; maximal reductions in PSA levels ([5]; 12 weeks at 2550 mg daily, listed as galeterone): > 50%; patients with maximal PSA response ([5]; patients with C-terminal AR loss): 4/4; reduction in PSA ([5]; two patients without loss of the AR C-terminal domain, 12 weeks at 2550 mg daily): did not respond as strongly; cell proliferation [6]: reduces cell proliferation; response of castration resistant tumors which express AR-V7 [7]: respond; anti-proliferative effects ([8]; crystal violet and MTT assays, LNCaP cells, CRPC cells, Enzalutamide resistant cells): had anti-proliferative effects; castration-resistant LNCaP growth and enzalutamide-resistant cell growth in vitro ([8]; summary of the data): suppresses castration-resistant LNCaP growth as well as enzalutamide-resistant cell growth; inhibition of CYP17 lyase [9]: potent inhibitor; AR-dependent gene expression [10]: reduces AR-dependent gene expression; AR nuclear translocation (immunofluorescence, FIG. 15B) ([1]; cytoplasmic vs nuclear green staining vs. control): reduces AR nuclear translocation; abiraterone and enzalutamide resistance due to AR splice variants [11]: successfully overcomes abiraterone and enzalutamide resistance due to AR splice variants; AR and PSA protein expression levels ([3]; Enzalutamide resistant cell line): still observed in resistant cells; AR and PSA protein expression levels ([3]; LNCaP cells): induced a greater reduction in AR and prostate-specific antigen (PSA) protein expression; AR activity (luciferase) ([4]; Enzalutamide resistant cell lines 49C and 49F): reduced AR activity in all three cell lines; AR activity (luciferase) [4, 13]: reduced AR activity in all three cell lines; AR activity (summary) ([4]; summary of the data): strongly inhibits AR activity
